Measurements: patent US20170291905A1, “ARGININE […] INHIBITORS AND USES THEREOF” (Epizyme, Inc., priority 2014, published 2017)

What follows are molecules tested against T1, full-length human PRMT1 isoform 1 (GST-tagged) (Homo sapiens, UniProt Q99873) (assay: PRMT1 biochemical assay (3H-SAM Flashplate, histone H4 36-50 peptide)). Conditions: 0.5 nM PRMT1, 30 min preincubation, 20 nM peptide.
T1 construct: GST-tagged PRMT1 was eluted with 50 mM Tris, 2 mM glutathione, pH 7.8, dialysed in buffer A and concentrated; made in house; host or cells: High Five insect cells (baculovirus)
Text: S-adenosylmethionine (SAM), S-adenosylhomocysteine (SAH), bicine, Tween20, dimethylsulfoxide (DMSO), bovine skin gelatin (BSG), and Tris(2-carboxyethyl)phosphine hydrochloride solution (TCEP) were purchased from Sigma-Aldrich at the highest level of purity possible. ^3H-SAM was purchase from American Radiolabeled Chemicals with a specific activity of 80 Ci/mmol. 384-well streptavidin Flashplates were purchased from PerkinElmer.
Peptide representative of human histone H4 residues 36-50 was synthesized with an N-terminal linker-affinity tag motif and a C-terminal amide cap by 21st Century Biochemicals. The peptide was purified by high-performance liquid chromatography (HPLC) to greater than 95% purity and confirmed by liquid chromatography mass spectrometry (LC-MS). The sequence was Biot-Ahx-[…]-amide (SEQ ID NO.:1).
Full-length human PRMT1 isoform 1 (NM_001536.5) transcript clone was amplified from an HEK 293 cDNA library, incorporating flanking 5′ sequence encoding a FLAG tag ([…]) (SEQ ID NO.:2) fused directly to Met 1 of PRMT1. The amplified gene was subcloned into pFastBacI (Life Technologies) modified to encode an N-terminal GST tag and a TEV cleavage sequence
Recombinant baculovirus were generated according to Bac-to-Bac kit instructions (Life Technologies). Protein over-expression was accomplished by infecting exponentially growing High Five insect cell culture at 1.5×10^6 cell/ml with 1:100 ratio of virus. Infections were carried out at 27° C. for 48 hours, harvested by centrifugation, and stored at −80° C. for purification.
GST-tagged PRMT1 was eluted with 50 mM Tris, 2 mM glutathione, pH 7.8, dialysed in buffer A and concentrated to 1 mg/mL. The purity of recovered protein was 73%. Reference: Wasilko, D. J. and S. E. Lee: “TIPS: titerless infected-cells preservation and scale-up” Bioprocess J., 5 (2006), pp. 29-32.
General Procedure for PRMT1 Enzyme Assays on Peptide Substrates.
The assays were all performed in a buffer consisting of 20 mM Bicine (pH=7.6), 1 mM TCEP, 0.005% BSG, and 0.002% Tween 20, prepared on the day of use. Compounds in 100% DMSO (1 ul) were spotted into a polypropylene 384-well V-bottom plates (Greiner) using a Platemate Plus outfitted with a 384-channel head (Thermo Scientific). DMSO (1 ul) was added to Columns 11, 12, 23, 24, rows A-H for the maximum signal control and 1 ul of SAH, a known product and inhibitor of PRMT1, was added to columns 11, 12, 23, 24, rows I-P for the minimum signal control. A cocktail (40 ul) containing the PRMT1 enzyme was added by Multidrop Combi (Thermo-Fisher). The compounds were allowed to incubate with PRMT1 for 30 min at room temperature, then a cocktail (10 ul) containing SAM and peptide was added to initiate the reaction (final volume=51 ul). The final concentrations of the components were as follows: PRMT1 was 0.5 nM, ^3H-SAM was 200 nM, non-radiolabeled SAM was 1.5 uM, peptide was 20 nM, SAH in the minimum signal control wells was 1 mM, and the DMSO concentration was 2%. The assays were stopped by the addition of non-radiolabeled SAM (10 ul) to a final concentration of 300 uM, which dilutes the ^3H-SAM to a level where its incorporation into the peptide substrate is no longer detectable. 50 ul of the reaction in the 384-well polypropylene plate was then transferred to a 384-well Flashplate and the biotinylated peptides were allowed to bind to the streptavidin surface for at least 1 hour before being washed once with 0.1% Tween20 in a Biotek ELx405 plate washer. The plates were then read in a PerkinElmer TopCount plate reader to measure the quantity of ^3H-labeled peptide bound to the Flashplate surface, measured as disintegrations per minute (dpm) or alternatively, referred to as counts per minute (cpm).
Where dpm=disintegrations per minute, cmpd=signal in assay well, and min and max are the respective minimum and maximum signal controls. […]

T1 sequence (Q99873 with tags, fused parts or gaps): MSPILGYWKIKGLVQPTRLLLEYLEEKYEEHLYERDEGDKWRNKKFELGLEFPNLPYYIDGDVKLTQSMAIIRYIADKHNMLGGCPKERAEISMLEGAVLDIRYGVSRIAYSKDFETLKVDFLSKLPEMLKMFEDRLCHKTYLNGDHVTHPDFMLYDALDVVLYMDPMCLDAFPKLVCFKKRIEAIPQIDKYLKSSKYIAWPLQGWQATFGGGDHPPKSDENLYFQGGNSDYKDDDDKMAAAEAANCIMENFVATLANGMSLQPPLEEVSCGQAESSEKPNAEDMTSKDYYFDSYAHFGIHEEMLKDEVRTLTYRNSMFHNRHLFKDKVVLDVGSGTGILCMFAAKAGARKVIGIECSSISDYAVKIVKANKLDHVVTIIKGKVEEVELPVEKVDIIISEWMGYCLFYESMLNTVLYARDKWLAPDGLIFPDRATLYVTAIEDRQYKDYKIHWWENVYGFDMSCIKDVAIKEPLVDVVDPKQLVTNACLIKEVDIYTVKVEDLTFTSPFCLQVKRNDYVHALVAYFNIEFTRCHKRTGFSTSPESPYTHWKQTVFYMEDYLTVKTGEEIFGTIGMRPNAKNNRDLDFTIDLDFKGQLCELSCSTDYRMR

Compared with `CNCCN(C)Cc1cncn1[C@H]1CC[C@]2(CC1)CC(C)(C)CO2` [compound 98], `CNCCN(C)Cc1nncn1[C@H]1CC[C@]2(CC1)CC(C)(C)CO2` [compound 90] is higher in IC50: 4360 nM for the first, greater than 10000 nM for the second.

First: CNCCN(C)Cc1n[nH]cc1[C@H]1CC[C@]2(CC1)CC(C)(C)CO2 [compound 116]
Second: CNCCN(C)Cc1nocc1[C@H]1CC[C@]2(CC1)CC(C)(C)CO2 [compound 118]
The IC50 of the first is 18-fold lower: 22.9 nM for the first, 409 nM for the second.

First: CNCCN(C)Cc1c(C)noc1[C@H]1CC[C@]2(CC1)CC(C)(C)CO2 [compound 114]
Second: CNCCN(C)Cc1sc(C)nc1[C@H]1CC[C@]2(CC1)CC(C)(C)CO2 [compound 100]
The IC50 of the first is 3.6-fold higher: 121 nM for the first, 33.5 nM for the second. The second is the more potent here.

First: CN(CCN)Cc1c[nH]nc1[C@H]1CC[C@@]2(CC1)CC(C)(C)CO2 [compound 105]
Second: CN(CCN)Cc1c[nH]nc1[C@H]1CC[C@]2(CC1)CC(C)(C)CO2 [compound 106]
The IC50 of the first is 8-fold lower: 5.68 nM for the first, 45.3 nM for the second. The first is the more potent here.

`CNCCN(C)Cc1c[nH]nc1C1C[C@@H](C(=O)N(C)CC(C)C)C(C)(C)[C@H](C(=O)N(C)CC(C)C)C1` (stereo partly drawn) [compound 12] and `CCN(C)C(=O)C1CC(c2n[nH]cc2CN(C)CCNC)CC(C(=O)NCCC(C)C)C1(C)C` (stereo not drawn) [compound 14, N1-ethyl-N3-isopentyl-N1,2,2-trimethyl-5-(4-((methyl(2-(methylamino)ethyl)amino)methyl)-1H-pyrazol-3-yl)cyclohexane-1,3-dicarboxamide] cannot be ordered by IC50: greater than 10000 nM for the first, greater than 10000 nM for the second.

First: CNCCN(C)Cc1c[nH]nc1[C@H]1CC[C@@H](COCC(F)(F)F)CC1 [compound 23, N1,N2-dimethyl-N1-((3-((1s,4s)-4-((2,2,2-trifluoroethoxy)methyl)cyclohexyl)-1H-pyrazol-4-yl)methyl)ethane-1,2-diamine]
Second: CNCCN(C)Cc1c[nH]nc1[C@H]1CC[C@H](COCC(F)(F)F)CC1 [compound 24, N1,N2-dimethyl-N1-((3-((1r,4r)-4-((2,2,2-trifluoroethoxy)methyl)cyclohexyl)-1H-pyrazol-4-yl)methyl)ethane-1,2-diamine]
The IC50 of the first is 4.1-fold higher: 50.8 nM for the first, 12.4 nM for the second. The second is the more potent here.

`CNCCN(C)Cc1c[nH]nc1[C@H]1CC[C@@]2(CCCCO2)CC1` [compound 3] and `CNCCN(C)Cc1c[nH]nc1[C@H]1CC[C@@]2(CC1)COC(C)(C)C2` [compound 126, N1-((3-((5r,8r)-3,3-dimethyl-2-oxaspiro[4.5]decan-8-yl)-1H-pyrazol-4-yl)methyl)-N1,N2-dimethylethane-1,2-diamine] are within 1.5-fold of each other in IC50: 13.6 nM for the first, 14.3 nM for the second.

Compared with `CNCCN(C)Cc1nccn1[C@H]1CC[C@]2(CC1)CC(C)(C)CO2` [compound 91], `CNCCN(C)Cc1nccn1[C@H]1CC[C@@]2(CC1)CC(C)(C)CO2` [compound 69] is 4-fold lower in IC50: 1020 nM for the first, 255 nM for the second.

Going from `CCOCC1(COCC)CCC(c2nn(C)cc2CN(C)CCNC)CC1` [compound 122] to `CCOCC1(COCC)CCC(c2n[nH]cc2CN(C)CCN)CC1` [compound 123], the IC50 falls from 21.1 nM to 4.28 nM (4.9-fold). The second is the more potent here.

Compared with `CNCCN(C)Cc1c[nH]nc1C1=CCC(CF)(CF)CC1` [compound 15, N-((3-(4,4-bis(fluoromethyl)cyclohex-1-en-1-yl)-1H-pyrazol-4-yl)methyl)-N1,N2-dimethylethane-1,2-diamine], `CNCCN(C)Cc1c[nH]nc1C1CCC(C)(C)[C@H](CO)C1` (stereo partly drawn) [compound 32, [(1R)-2,2-dimethyl-5-[4-({methyl[2-(methylamino)ethyl]amino}methyl)-1H-pyrazol-3-yl]cyclohexyl]methanol] is 3.9-fold higher in IC50: 5.6 nM for the first, 22.1 nM for the second. The first is the more potent here.

First: CN(CCN)Cc1nn(C)cc1[C@H]1CC[C@@]2(CC1)CC(C)(C)CO2 [compound 80]
Second: CNCCN(C)Cc1nn(C)cc1[C@H]1CC[C@@]2(CC1)CC(C)(C)CO2 [compound 81]
The IC50 of the first is 3.9-fold lower: 5.83 nM for the first, 22.8 nM for the second.

Going from `CCOC[C@@H]1CC(c2n[nH]cc2CN(C)CCNC)CCC1(C)C` (stereo partly drawn) [compound 31, {2-[({3-[(3R)-3-(ethoxymethyl)-4,4-dimethylcyclohexyl]-1H-pyrazol-4-yl}methyl)(methyl)amino]ethyl}(methyl)amine] to `CNCCN(C)Cc1c[nH]nc1C1CCC(C)(C)[C@H](COCCOC)C1` (stereo partly drawn) [compound 35, {2-[({3-[(3R)-3-[(2-methoxyethoxy)methyl]-4,4-dimethylcyclohexyl]-1H-pyrazol-4-yl}methyl)(methyl)amino]ethyl}(methyl)amine], the IC50 rises from 25 nM to 51.9 nM (2.1-fold). The first is the more potent here.

Compared with `CNCCN(C)Cc1nc(C)sc1[C@H]1CC[C@]2(CC1)CC(C)(C)CO2` [compound 99], `CNCCN(C)Cc1ncsc1[C@H]1CC[C@@]2(CC1)CC(C)(C)CO2` [compound 83] is 2.4-fold lower in IC50: 35.6 nM for the first, 14.8 nM for the second. The second is the more potent here.

First: CNCCN(C)Cc1c[nH]nc1[C@@H]1CC[C@H](OCCCOC)C2(CCCC2)C1 (racemic) [compound 27, N1-((3-((7R,10S)-10-(3-methoxypropoxy)spiro[4.5]decan-7-yl)-1H-pyrazol-4-yl)methyl)-N1,N2-dimethylethane-1,2-diamine]
Second: CNCCN(C)Cc1c[nH]nc1[C@@H]1CC[C@@H](OCCCOC)C2(CCCC2)C1 (racemic) [compound 26, N1-((3-((7R,10R)-10-(3-methoxypropoxy)spiro[4.5]decan-7-yl)-1H-pyrazol-4-yl)methyl)-N1,N2-dimethylethane-1,2-diamine]
The IC50 of the first is 2.2-fold lower: 6.58 nM for the first, 14.3 nM for the second. The first is the more potent here.

First: CNCCN(C)Cc1c[nH]nc1C1CCC(C)(C)[C@H](COCCCOC)C1 (stereo partly drawn) [compound 30, {2-[({3-[(3R)-3-[(3-methoxypropoxy)methyl]-4,4-dimethylcyclohexyl]-1H-pyrazol-4-yl}methyl)(methyl)amino]ethyl}(methyl)amine]
Second: CCCOCC1(COCCC)CCC(c2n[nH]cc2CN(C)CCNC)CC1 [compound 36, N^1-((3-(4,4-bis(propoxymethyl)cyclohexyl)-1H-pyrazol-4-yl)methyl)-N^1,N^2-dimethylethane-1,2-diamine]
The IC50 of the first is 2.6-fold higher: 21 nM for the first, 7.93 nM for the second.

First: CNCCN(C)Cc1c[nH]nc1[C@H]1CC[C@]2(CCN(CCC(C)C)C2=O)CC1 [compound 10]
Second: CNCCN(C)Cc1c[nH]nc1[C@H]1CC[C@@]2(CCN(CCC(C)C)C2=O)CC1 [compound 11, (5r,8r)-2-isopentyl-8-(4-((methyl(2-(methylamino)ethyl)amino)methyl)-1H-pyrazol-3-yl)-2-azaspiro[4.5]decan-1-one]
The IC50 of the first is 8.4-fold higher: 55 nM for the first, 6.55 nM for the second. The second is the more potent here.

First: CNCCN(C)Cc1nn(C)nc1[C@H]1CC[C@@]2(CC1)CC(C)(C)CO2 [compound 64]
Second: CNCCN(C)Cc1scnc1[C@H]1CC[C@@]2(CC1)CC(C)(C)CO2 [compound 62]
The IC50 of the first is 7.6-fold higher: 31.9 nM for the first, 4.18 nM for the second. The second is the more potent here.

`CNCCN(C)Cc1c[nH]nc1C1CCC2(CC1)CC(C)(C)OC2=O` (stereo not drawn) [compound 125] and `CCC1(CC)CC2(CCC(c3n[nH]cc3CN(C)CCNC)CC2)N(C)C1=O` (stereo not drawn) [compound 22, 3,3-diethyl-1-methyl-8-(4-((methyl(2-(methylamino)ethyl)amino)methyl)-1H-pyrazol-3-yl)-1-azaspiro[4.5]decan-2-one] are within 1.5-fold of each other in IC50: 10.7 nM for the first, 13.1 nM for the second.

Going from `CNCCN(C)Cc1nnc(C)n1[C@H]1CC[C@]2(CC1)CC(C)(C)CO2` [compound 93] to `CNCCNCc1c[nH]nc1[C@H]1CC[C@@]2(CC1)CC(C)(C)CO2` [compound 28, N1-((3-((5s,8s)-3,3-dimethyl-1-oxaspiro[4.5]decan-8-yl)-1H-pyrazol-4-yl)methyl)-N2-methylethane-1,2-diamine], the IC50 falls from greater than 10000 nM to 13.2 nM.

For `CNCCN(C)Cc1c[nH]nc1C1C[C@H](C(=O)NCCOC)C(C)(C)[C@H](C(=O)NCCOC)C1` (stereo partly drawn) [compound 13], the IC50 was greater than 10000 nM.
